This note sets out measurements from ChEMBL document CHEMBL5126507, “P2Y12 antagonists: Approved drugs, potential naturally isolated and synthesised compounds, and related in-silico studies” (Eur J Med Chem, 2022).

Series [1] can be described thus: Half life in human plasma. Type of series: ADME, cell-free.
A short description of series [2]: Antiplatelet activity in human platelet rich plasma assessed as inhibition of ADP-induced platelet aggregation. The class given is functional, cell-based.
Series [3] addresses P2Y purinoceptor 12 (Homo sapiens, UniProt Q9H244). Description: Displacement of [3H]2MeSADP from human P2Y12 preincubated for 5 mins followed by [3H]2MeSADP addition and measured after 15 mins by scintillation counting method.
Series [4] deals with Homo sapiens. Description: Antiplatelet activity in human assessed as inhibition of ADP-induced platelet aggregation at 100 mg, po after 4 hrs. Type of series: functional. On the set-up: scale not given: the % may be the effect or the level left.

P2Y purinoceptor 12, sequence (Q9H244 whole entry): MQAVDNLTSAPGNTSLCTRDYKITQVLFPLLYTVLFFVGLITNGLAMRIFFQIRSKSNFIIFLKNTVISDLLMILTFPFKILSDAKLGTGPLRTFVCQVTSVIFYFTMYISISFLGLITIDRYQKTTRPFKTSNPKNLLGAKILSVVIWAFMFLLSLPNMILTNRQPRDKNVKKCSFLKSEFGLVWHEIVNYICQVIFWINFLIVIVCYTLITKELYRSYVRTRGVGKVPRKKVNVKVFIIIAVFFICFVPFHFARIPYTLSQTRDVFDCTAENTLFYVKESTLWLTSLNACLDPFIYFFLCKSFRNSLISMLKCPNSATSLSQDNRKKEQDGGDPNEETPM

The compound `CNc1cc2[nH]c(=O)n(-c3ccc(NC(=O)NS(=O)(=O)c4ccc(Cl)s4)cc3)c(=O)c2cc1F` [ELINOGREL] gave a half-life in series [1] of 720 min. In addition, the values for the IC50 in series [2] and in series [3] were 10 µM and 50 nM, respectively. The Activity in series [4] came out at 60%.
